Data from patent publication US8138119B2, “Alkoxyalkyl spirocyclic tetramic acids and tetronic acids” (Bayer Cropscience AG, priority 2005, dated 2012).

Test: Determination of the log P values by HPLC on a reversed-phase column (C18)
Format: physicochemical
Experimental: The log P values given in the table were determined in accordance with EEC Directive 79/831 Annex V.A8 by HPLC (High Performance Liquid Chromatography) on a reversed-phase column (C18). Temperature: 43° C.
Mobile phases for the determination in the acidic range (pH 2.3): 0.1% aqueous phosphoric acid, acetonitrile; linear gradient from 10% acetonitrile to 90% acetonitrile
Calibration was carried out using unbranched alkan-2-ones (with 3 to 16 carbon atoms) whose log P values are known (determination of the log P values by the retention times using linear interpolation between two successive alkanones).

[1] = compounds of the formula (I-2-a), m.p. ° C./log P
[2] = compounds of the formula (III), cis/trans isomer mixture, first value of the cell
[3] = compounds of the formula (III), cis/trans isomer mixture, second value of the cell
[4] = HPLC reversed-phase column (C18), acidic range (pH 2.3), 43° C.

SMILES	log P [1]	log P [2]	log P [3]	other results
CCc1cc(C)cc(CC)c1C1=C(O)C2(CCC(CCOC)CC2)OC1=O (stereo not shown) [Example I-2-a-33]	oil/3.40	–	–	–
CCc1cc(Br)cc(CC)c1C1=C(O)C2(CCC(COC)CC2)OC1=O (stereo not shown) [Example I-2-a-13]	oil/3.38	–	–	–
CCOC(=O)C1(OC(=O)Cc2c(CC)cc(C)cc2CC)CCCC(CCOC)C1 (mixture of isomers) [III-24]	–	5.56	5.66	–
CCOC(=O)C1(OC(=O)Cc2c(C)ccc(-c3ccc(Cl)cc3)c2C)CCCC(CCOC)C1 (mixture of isomers) [III-27]	–	6.02	6.09	–
COCC1CCCC2(C1)OC(=O)C(c1cc(C)c(C)cc1C)=C2O (stereo not shown) [1-2-a-5]	oil/2.78	–	–	–
CCOC(=O)C1(OC(=O)Cc2cc(-c3ccc(Cl)cc3)ccc2C)CCCC(COC)C1 (mixture of isomers) [III-2]	–	5.50	5.58	–
CCOC(=O)C1(OC(=O)Cc2cc(-c3ccc(Cl)cc3)ccc2C)CCCC(CCOC)C1 (mixture of isomers) [III-18]	–	5.68	5.80	–
CCOC(=O)OC1=C(c2cc(-c3ccc(Cl)cc3)ccc2C)C(=O)OC12CCC(COC)CC2 (stereo not shown) [Example I-2-c-2]	–	–	–	log P [4]: 4.95
CCOC(=O)C1(OC(=O)Cc2c(C)cc(C)cc2C)CCCC(COC)C1 (mixture of isomers) [III-6]	–	4.85	4.94	–
CCOC(=O)C1(OC(=O)Cc2c(C)cc(Br)cc2C)CCC(CCOC)CC1 (mixture of isomers) [III-29]	–	5.13	5.29	–
CCc1cc(C)cc(CC)c1C1=C(O)C2(CCC(COC)CC2)OC1=O (stereo not shown) [Example I-2-a-14]	oil/3.19	–	–	–
CCOC(=O)C1(OC(=O)Cc2c(CC)cc(Br)cc2CC)CCCC(CCOC)C1 (mixture of isomers) [III-23]	–	5.69	5.81	–
COCCC1CCCC2(C1)OC(=O)C(c1cc(-c3ccc(Cl)cc3)ccc1C)=C2O (stereo not shown) [Example I-2-a-18]	oil/3.75	–	–	–
CCOC(=O)C1(OC(=O)Cc2cc(C)c(C)cc2C)CCCC(CCOC)C1 (mixture of isomers) [III-21]	–	4.94	5.05	–
CCOC(=O)C1(OC(=O)Cc2c(C)cc(Br)cc2C)CCCC(CCOC)C1 (mixture of isomers) [III-19]	–	5.13	5.26	–
COCCC1CCC2(CC1)OC(=O)C(c1c(C)cc(Br)cc1C)=C2O (stereo not shown) [Example I-2-a-29]	oil/3.10	–	–	–
CCOC(=O)C1(OC(=O)Cc2c(C)cc(Cl)cc2C)CCCC(COC)C1 (mixture of isomers) [III-4]	–	4.82	4.93	–
CCOC(=O)C1(OC(=O)Cc2c(CC)cc(C)cc2CC)CCC(CCOC)CC1 (mixture of isomers) [III-33]	–	5.64	5.75	–
CCOC(=O)C1(OC(=O)Cc2c(CC)cc(C)cc2CC)CCC(COC)CC1 (mixture of isomers) [III-14]	–	5.39	5.51	–
COCCC1CCCC2(C1)OC(=O)C(c1cc(C)c(C)cc1C)=C2O (stereo not shown) [Example I-2-a-21]	oil/2.96	–	–	–
CCOC(=O)OC1=C(c2c(CC)cc(C)cc2CC)C(=O)OC12CCCC(CCOC)C2 (stereo not shown) [Example I-2-c-3]	–	–	–	log P [4]: 4.97
COCCC1CCCC2(C1)OC(=O)C(c1c(C)cc(C)cc1C)=C2O (stereo not shown) [Example I-2-a-22]	oil/2.94	–	–	–
COCCC1CCCC2(C1)OC(=O)C(c1c(C)cc(Br)cc1C)=C2O (stereo not shown) [Example I-2-a-19]	oil/3.13	–	–	–
COCCC1CCC2(CC1)OC(=O)C(c1c(C)cc(C)cc1C)=C2OC(=O)C(C)C (stereo not shown) [Example I-2-b-1]	–	–	–	chromatographic logP (reversed-phase HPLC column (C18), pH 2.3, HPLC reversed-phase column (C18), acidic range (pH 2.3), 43° C.): 4.79
CCOC(=O)C1(OC(=O)Cc2c(C)ccc(-c3ccc(Cl)cc3)c2C)CCC(COC)CC1 (mixture of isomers) [III-17]	–	5.86	5.96	–
CCOC(=O)C1(OC(=O)Cc2cc(C)c(-c3ccc(Cl)cc3)cc2C)CCC(COC)CC1 (mixture of isomers) [III-15]	–	5.90	5.98	–
